# Reference: patent US10570129B2 (Zoetis Services LLC, priority 2015, dated 2020)
# Legend:
# [1] = tested on: D. immitis microfilariae; test: Dirofilaria immitis, microfilariae (DiMF) in vitro motility assay; type: cell-based; conditions: for minimal effective concentration: Dirofilaria immitis, 72 h, read-out: DiMF minimally effective dose (MEC)
# [2] = tested on: Haemonchus contortus L3; test: microbe, parasite or virus in culture; type: cell-based; conditions: for minimal effective concentration: Haemonchus contortus, 96 h, read-out: HcL3 Minimal Effective Concentration (MEC)
SMILES,minimal effective concentration [1] [µM],minimal effective concentration [2] [µM],DiMF minimally effective dose (MEC) [1] [µM],HcL3 Minimal Effective Concentration (MEC) [2] [µM]
"N#Cc1ccc2c3c(n(C(=O)NCc4ccnc(Cl)c4)c2c1)CCN(C/C=C/c1ccc(F)c(F)c1)C3 [Example 28, (E)-N-((2-chloropyridin-4-yl)methyl)-7-cyano-2-(3-(3,4-difluorophenyl)allyl)-1,2,3,4-tetrahydro-5H-pyrido[4,3-b]indole-5-carboxamide]",4.4,1.8,–,–
"N#Cc1ccc2c(c1)c1c(n2C(=O)NCc2ccnc(F)c2)CCN(C/C=C/c2ccc(Cl)cc2)C1 [Example 121, (E)-2-(3-(4-chlorophenyl)allyl)-8-cyano-N-((2-fluoropyridin-4-yl)methyl)-1,2,3,4-tetrahydro-5H-pyrido[4,3-b]indole-5-carboxamide]",10,0.3,–,–
"O=C(NCc1ccnc(Cl)c1)n1c2c(c3cccc(Cl)c31)CN(C/C=C/c1ccc(OC(F)(F)F)cc1)CC2 [Example 271, (E)-6-chloro-N-((2-chloropyridin-4-yl)methyl)-2-(3-(4-(trifluoromethoxy)-phenyl)allyl)-1,2,3,4-tetrahydro-5H-pyrido[4,3-b]indole-5-carboxamide]",5.7,> 100,–,–
"O=C(NCc1ccnc(Cl)c1)n1c2c(c3cc(Br)c(C(F)(F)F)cc31)CN(C/C=C/c1ccc(Cl)cc1)CC2 [Example 498, (E)-8-bromo-2-(3-(4-chlorophenyl)allyl)-N-((2-chloropyridin-4-yl)methyl)-7-(trifluoromethyl)-1,2,3,4-tetrahydro-5H-pyrido[4,3-b]indole-5-carboxamide]",5.7,1.8,–,–
"Cc1ccc2c(c1)c1c(n2C(=O)NCc2ccnc(Cl)c2)CCN(C/C=C/c2ccc(Cl)cc2)C1 [Example 431, (E)-2-(3-(4-chlorophenyl)allyl)-N-((2-chloropyridin-4-yl)methyl)-8-methyl-1,2,3,4-tetrahydro-5H-pyrido[4,3-b]indole-5-carboxamide]",3.3,1,–,–
"COc1ccc(/C=C/CN2CCc3c(c4ccc(Cl)cc4n3C(=O)NCc3ccnc(Cl)c3)C2)cc1 [Example 219, (E)-7-chloro-N-((2-chloropyridin-4-yl)methyl)-2-(3-(4-methoxyphenyl)allyl)-1,2,3,4-tetrahydro-5H-pyrido[4,3-b]indole-5-carboxamide]",3.3,0.5,–,–
"O=C(NCc1ccnc(Cl)c1)n1c2c(c3cc(Br)c(F)cc31)CN(C/C=C/c1ccc(Cl)cc1)CC2 [Example 197, (E)-8-bromo-2-(3-(4-chlorophenyl)allyl)-N-((2-chloropyridin-4-yl)methyl)-7-fluoro-1,2,3,4-tetrahydro-5H-pyrido[4,3-b]indole-5-carboxamide]",4.4,0.4,–,–
"N#Cc1ccc2c(c1)c1c(n2C(=O)NCc2ccnc(Cl)c2)CCN(C/C=C/c2cc(F)c(Cl)c(F)c2)C1 [Example 71, (E)-2-(3-(4-chloro-3,5-difluorophenyl)allyl)-N-((2-chloropyridin-4-yl)methyl)-8-cyano-1,2,3,4-tetrahydro-5H-pyrido[4,3-b]indole-5-carboxamide]",> 100,0.2,–,–
"O=C(NCc1ccnc(Cl)c1)N1c2ccc(Cl)cc2C2CN(C/C=C/c3ccc(Cl)c(Cl)c3)CCC21 (stereo not drawn) [Example 517, (E)-8-chloro-N-((2-chloropyridin-4-yl)methyl)-2-(3-(3,4-dichlorophenyl)allyl)-1,2,3,4,4a,9b-hexahydro-5H-pyrido[4,3-b]indole-5-carboxamide]",–,–,10.0,0.5
"O=C(NCc1ccnc(Cl)c1)n1c2c(c3ccc(Br)cc31)CN(C/C=C/c1ccc(F)c(Cl)c1)CC2 [Example 439, (E)-7-bromo-2-(3-(3-chloro-4-fluorophenyl)allyl)-N-((2-chloropyridin-4-yl)methyl)-1,2,3,4-tetrahydro-5H-pyrido[4,3-b]indole-5-carboxamide]",18.2,1.8,–,–
"O=C(NCc1ccnc(Cl)c1)n1c2c(c3cc(OC(F)(F)F)ccc31)CN(C/C=C/c1ccc(F)c(F)c1)CC2 [Example 389, (E)-N-((2-chloropyridin-4-yl)methyl)-2-(3-(3,4-difluorophenyl)allyl)-8-(trifluoromethoxy)-1,2,3,4-tetrahydro-5H-pyrido[4,3-b]indole-5-carboxamide]",10,0.5,–,–
"O=C(NCc1ccnc(O)c1)n1c2c(c3cc(C(F)(F)F)ccc31)CN(C/C=C/c1ccc(F)cc1F)CC2 [Example 453, (E)-2-(3-(2,4-difluorophenyl)allyl)-N-((2-hydroxypyridin-4-yl)methyl)-8-(trifluoromethyl)-1,2,3,4-tetrahydro-5H-pyrido[4,3-b]indole-5-carboxamide]",10,> 100,–,–
"COc1ccc2c(c1)c1c(n2C(=O)NCc2ccnc(Cl)c2)CCN(C/C=C/c2ccc(Cl)cc2)C1 [Example 512, (E)-2-(3-(4-chlorophenyl)allyl)-N-((2-chloropyridin-4-yl)methyl)-8-methoxy-1,2,3,4-tetrahydro-5H-pyrido[4,3-b]indole-5-carboxamide]",10,1,–,–
"N#Cc1ccc2c(c1)c1c(n2C(=O)NCc2ccnc(F)c2)CCN(C/C=C/c2cc(F)ccc2Br)C1 [Example 107, (E)-2-(3-(2-bromo-5-fluorophenyl)allyl)-8-cyano-N-((2-fluoropyridin-4-yl)methyl)-1,2,3,4-tetrahydro-5H-pyrido[4,3-b]indole-5-carboxamide]",1.8,0.5,–,–
"N#Cc1ccc(/C=C/CN2CCc3c(c4ccc(Br)cc4n3C(=O)NCc3ccnc(Cl)c3)C2)cc1F [Example 438, (E)-7-bromo-N-((2-chloropyridin-4-yl)methyl)-2-(3-(4-cyano-3-fluorophenyl)allyl)-1,2,3,4-tetrahydro-5H-pyrido[4,3-b]indole-5-carboxamide]",18.2,> 100,–,–
"N#Cc1ccc2c3c(n(C(=O)NCc4ccnc(Cl)c4)c2c1)CCN(C/C=C/c1cccc(Cl)c1F)C3 [Example 31, (E)-2-(3-(3-chloro-2-fluorophenyl)allyl)-N-((2-chloropyridin-4-yl)methyl)-7-cyano-1,2,3,4-tetrahydro-5H-pyrido[4,3-b]indole-5-carboxamide]",> 100,1,–,–
"O=C(NCc1ccnc(Cl)c1)n1c2c(c3cc4c(cc31)COC4)CN(C/C=C/c1ccc(C(F)(F)F)cn1)CC2 [Example 474, (E)-N-((2-chloropyridin-4-yl)methyl)-8-(3-(5-(trifluoromethyl)pyridin-2-yl)allyl)-1,3,6,7,8,9-hexahydro-5H-furo[3,4-f]pyrido[4,3-b]indole-5-carboxamide]",10,0.2,–,–
"N#Cc1cc2c3c(n(C(=O)NCc4ccnc(Cl)c4)c2cc1C(F)(F)F)CCN(C/C=C/c1ccc(Cl)cc1)C3 [Example 171, (E)-2-(3-(4-chlorophenyl)allyl)-N-((2-chloropyridin-4-yl)methyl)-8-cyano-7-(trifluoromethyl)-1,2,3,4-tetrahydro-5H-pyrido[4,3-b]indole-5-carboxamide]",10,0.5,–,–
"O=C(NCc1cnc(Cl)s1)n1c2c(c3cc(Br)ccc31)CN(C/C=C/c1ccc(Cl)cc1)CC2 [Example 193, (E)-8-bromo-2-(3-(4-chlorophenyl)allyl)-N-((2-chlorothiazol-5-yl)methyl)-1,2,3,4-tetrahydro-5H-pyrido[4,3-b]indole-5-carboxamide]",75.8,1,–,–
"O=C(NCc1ccnc(Cl)c1)n1c2c(c3c(Cl)cccc31)CN(C/C=C/c1ccc(OC(F)(F)F)cc1)CC2 [Example 222, (E)-9-chloro-N-((2-chloropyridin-4-yl)methyl)-2-(3-(4-(trifluoromethoxy)-phenyl)allyl)-1,2,3,4-tetrahydro-5H-pyrido[4,3-b]indole-5-carboxamide]",10,> 100,–,–
"N#Cc1cc(/C=C/CN2CCc3c(c4cc(Cl)ccc4n3C(=O)NCc3ccnc(Cl)c3)C2)ccc1F [Example 234, (E)-8-chloro-N-((2-chloropyridin-4-yl)methyl)-2-(3-(3-cyano-4-fluorophenyl)allyl)-1,2,3,4-tetrahydro-5H-pyrido[4,3-b]indole-5-carboxamide]",3.3,0.1,–,–
"O=C(NCc1ccnc(Cl)c1)n1c2c(c3cc(N4CCCSC4)ccc31)CN(C/C=C/c1ccc(Cl)c(Cl)c1)CC2 [Example 511, (E)-N-((2-chloropyridin-4-yl)methyl)-2-(3-(3,4-dichlorophenyl)allyl)-8-(1,3-thiazinan-3-yl)-1,2,3,4-tetrahydro-5H-pyrido[4,3-b]indole-5-carboxamide]",> 100,> 100,–,–
"N#Cc1cc2c3c(n(C(=O)NCc4ccnc(Cl)c4)c2cc1OC(F)(F)F)CCN(C/C=C/c1ccc(Cl)cc1)C3 [Example 503, (E)-2-(3-(4-chlorophenyl)allyl)-N-((2-chloropyridin-4-yl)methyl)-8-cyano-7-(trifluoromethoxy)-1,2,3,4-tetrahydro-5H-pyrido[4,3-b]indole-5-carboxamide]",3.3,33,–,–
"O=C(NCc1ccnc(F)c1)n1c2c(c3ccc(OC(F)(F)F)cc31)CN(C/C=C/c1cc(F)cc(Cl)c1)CC2 [Example 380, (E)-2-(3-(3-chloro-5-fluorophenyl)allyl)-N-((2-fluoropyridin-4-yl)methyl)-7-(trifluoromethoxy)-1,2,3,4-tetrahydro-5H-pyrido[4,3-b]indole-5-carboxamide]",33,> 100,–,–
